Laboratory results reported in article PMC12486850, “Dual mechanism of the OXA-23 carbapenemase inhibition by the carbapenem NA-1-157” (Antimicrobial Agents and Chemotherapy, 2025).

Tests used:
[1] = biological target: T1, OXA-23 (Acinetobacter baumannii, UniProt Q9L4P2); experiment: time-resolved crystal structures ([…] min soaks), ESI-LC/MS, nitrocefin competition kinetics; type: biochemical
T1 construct: 5'-truncated (54 bp) E. coli-optimized blaOXA-23 gene

[2] = biological target: T1, OXA-23; experiment: crystal structure of the acyl-enzyme complex ([…] min soak, […] meropenem); type: binding

T1 sequence (Q9L4P2 19-273): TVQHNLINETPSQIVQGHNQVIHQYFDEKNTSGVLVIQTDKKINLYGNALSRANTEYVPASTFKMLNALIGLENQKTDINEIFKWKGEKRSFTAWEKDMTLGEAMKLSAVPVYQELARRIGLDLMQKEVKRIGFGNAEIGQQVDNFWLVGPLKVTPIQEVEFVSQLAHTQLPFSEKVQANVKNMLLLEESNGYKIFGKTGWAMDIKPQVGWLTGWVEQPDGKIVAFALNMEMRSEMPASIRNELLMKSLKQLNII

| Structure (SMILES) | Ki [1] | crystal structure of the acyl-enzyme complex (6 min soak, 20 mM meropenem) [2] |
| --- | --- | --- |
| C[C@@H](O)[C@H]1C(=O)N2C(C(=O)O)=C(S[C@@H]3CN[C@H](C(=O)N(C)C)C3)C[C@]12C [NA-1-157] | 590 ± 20 nM | – |
| C[C@@H](O)[C@H]1C(=O)N2C(C(=O)O)=C(S[C@@H]3CN[C@H](C(=O)N(C)C)C3)[C@H](C)[C@H]12 [meropenem] | – | In the OXA-23–meropenem acyl-enzyme complex, meropenem is covalently attached to the Ser70 side chain |
